# Patent US8513227B2, “Inhibition of inflammatory cytokine production with tanshinones” (The Feinstein Institute for Medical Research, priority 2006, dated 2013)
# Like-named read-outs stand apart in the source and are kept apart here.
# How the values were obtained:
# [1] = tested on: HMGB1; assay: LPS-induced HMGB1 release in RAW 264.7 macrophage cultures (western blot); type: cell-based, murine; details: for IC50: Mus musculus, read-out: estimated IC50 for LPS-induced HMGB1 release
# From the text: Cell culture. […] Rendon-Mitchell et al. 2003). Murine macrophages were pre-cultured in RPMI 1640 medium (Gibco BRL, Grand Island, N.Y.) supplemented with 10% fetal bovine serum (FBS) and 2 mmol/L glutamine. Human peripheral blood mononuclear cells (HuPBMCs) were isolated from the blood of healthy donors (Long Island Blood Bank, Melville, N.Y.) by density gradient centrifugation through Ficoll (Ficoll-Paque PLUS, Pharmacia, Piscataway, N.J.), and cultured in RPMI 1640 supplemented with 10% heat-inactivated human serum/0.2 mM L-glutamine as previously described (Rendon-Mitchell et al. 2003). LPS stimulation. Adherent macrophages or monocytes were gently washed with, and cultured in, serum-free OPTI-MEM I medium two hours before stimulation with bacterial endotoxin (lipopolysaccharide, LPS, E. coli 0111:B4, Sigma-Aldrich). […] Rendon-Mitchell et al. 2003; Wang et al. 1999). HMGB1 western blotting analysis. The levels of HMGB1 in the culture medium or serum were determined by western blotting analysis as previously described (Chen et al. 2004; Rendon-Mitchell et al. 2003; Wang et al. 1999). The relative band intensity was quantified using NIH image 1.59 software to determine HMGB1 levels with reference to standard curves generated with purified HMGB1.
# [2] = tested on: TNF; assay: LPS-mediated TNF secretion in RAW 264.7 macrophages (ELISA); type: cell-based, murine; details: concentrations up to 10 μM, FIG. 5C
# Experimental: Cell culture. Murine macrophage-like RAW 264.7 cells were obtained from the American Type Culture Collection (ATCC, Rockville, Md.), and primary peritoneal macrophages were isolated from Balb/C mice (male, 7-8 weeks, 20-25 grams) at 2-3 days after intraperitoneal injection of 2 ml thioglycollate broth (4%) as previously described (Chen et al. 2004; Rendon-Mitchell et al. 2003). Murine macrophages were pre-cultured in RPMI 1640 medium (Gibco BRL, Grand Island, N.Y.) supplemented with 10% fetal bovine serum (FBS) and 2 mmol/L glutamine. Human peripheral blood mononuclear cells (HuPBMCs) were isolated from the blood of healthy donors (Long Island Blood Bank, Melville, N.Y.) by density gradient centrifugation through Ficoll (Ficoll-Paque PLUS, Pharmacia, Piscataway, N.J.), and cultured in RPMI 1640 supplemented with 10% heat-inactivated human serum/0.2 mM L-glutamine as previously described (Rendon-Mitchell et al. 2003). LPS stimulation. […] The levels of TNF in the culture medium or serum were determined using commercial enzyme linked immunosorbent assay (ELISA) kits (Catalog no. MTA00, R & D Systems, Minneapolis, Minn.) with reference to standard curves of purified recombinant TNF at various dilutions as previously described (Chen et al. 2004; Rendon-Mitchell et al. 2003; Wang et al. 2006).
# [3] = target: acetylcholinesterase (Homo sapiens, UniProt P22303); details: literature; cited from earlier work
# [4] = tested on: HMGB1; details: Wang et al. 2006; cited from earlier work
# [5] = tested on: nitric oxide; details: Wang et al. 2006; cited from earlier work
# [6] = tested on: lethal sepsis; assay: Lethal sepsis induced by cecal ligation and puncture (CLP) in Balb/C mice; type: in vivo; details: 12 mg/kg, repeated at 24, 48, 72, 96 hours post onset; vehicle 50%; N=14, p>0.05
# Experimental: Animal models of endotoxemia and sepsis. This study was approved and performed in accordance with the guidelines for the care and use of laboratory animals at the Feinstein Institute for Medical Research, Manhasset, N.Y. Endotoxemia was induced in Balb/C mice (male, 7-8 weeks) by intraperitoneal injection of bacterial endotoxin (LPS, 15 mg/kg) as previously described (Chen et al. 2005; Wang et al. 1999; Wang et al. 2006). Sepsis was induced in male Balb/C mice (7-8 weeks, 20-25 g) or Sprague-Dawley rats (290-310 g) by cecal ligation and puncture (CLP) as previously described (Wang et al. 2006; Yang et al. 2002b). Herbal components were administered intraperitoneally into mice at indicated doses and time points, and mice were monitored for survival for up to two weeks. In parallel experiments, mice were euthanized to collect blood at 28 h (following two doses of herbal components at −0.5 and +24 h) after endotoxemia, and at 52 h (following two doses of herbal components at +24 and +48 h) after CLP.
# TNF ELISA. The levels of TNF in the culture medium or serum were determined using commercial enzyme linked immunosorbent assay (ELISA) kits (Catalog no. MTA00, R & D Systems, Minneapolis, Minn.) with reference to standard curves of purified recombinant TNF at various dilutions as previously described (Chen et al. 2004; Rendon-Mitchell et al. 2003; Wang et al. 2006).
# Nitric oxide assay. The levels of nitric oxide in the culture medium were determined indirectly by measuring NO^2− production with a colorimetric assay based on the Griess reaction (Rendon-Mitchell et al. 2003). NO2-concentrations were determined with reference to a standard curve generated with sodium nitrite at various dilutions.
# HMGB1 western blotting analysis. The levels of HMGB1 in the culture medium or serum were determined by western blotting analysis as previously described (Chen et al. 2004; Rendon-Mitchell et al. 2003; Wang et al. 1999). The relative band intensity was quantified using NIH image 1.59 software to determine HMGB1 levels with reference to standard curves generated with purified HMGB1.
# Tissue histology. At 48 hours after CLP, mice were euthanized in CO2 Chamber, and immediately perfused (transcardially) with phosphate buffer saline and 4% paraformaldehyde. Various tissues were harvested, sectioned, and stained with hematoxylin and eosin for morphology evaluation.
# [7] = tested on: phospholipase A2; details: Kim et al. 2002; cited from earlier work
# [8] = superpharmacological concentrations (1-25 μM), data not shown
# [9] = RAW264.7, RAW 264.7 cells, 16 h after LPS, western blot, estimated
# acetylcholinesterase, sequence (P22303 32-614, species assumed): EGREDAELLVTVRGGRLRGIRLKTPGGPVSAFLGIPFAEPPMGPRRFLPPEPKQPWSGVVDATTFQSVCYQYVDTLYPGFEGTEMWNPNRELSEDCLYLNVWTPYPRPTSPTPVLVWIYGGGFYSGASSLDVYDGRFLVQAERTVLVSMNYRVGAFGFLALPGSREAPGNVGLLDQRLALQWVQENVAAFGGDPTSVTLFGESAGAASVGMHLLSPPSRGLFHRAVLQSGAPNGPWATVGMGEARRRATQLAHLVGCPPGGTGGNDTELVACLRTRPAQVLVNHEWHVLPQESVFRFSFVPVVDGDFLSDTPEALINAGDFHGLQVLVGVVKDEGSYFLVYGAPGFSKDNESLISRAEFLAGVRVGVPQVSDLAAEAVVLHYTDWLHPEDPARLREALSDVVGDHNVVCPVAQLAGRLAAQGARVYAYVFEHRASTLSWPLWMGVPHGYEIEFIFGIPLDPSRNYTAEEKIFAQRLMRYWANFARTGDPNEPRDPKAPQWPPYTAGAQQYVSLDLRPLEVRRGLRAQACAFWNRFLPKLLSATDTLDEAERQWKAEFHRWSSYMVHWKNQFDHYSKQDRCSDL
structure (smiles),measurement,setting,value
CC(=O)Oc1ccccc1C(=O)O [aspirin],effect on LPS-induced HMGB1 release,[1]; [8],"None of the tested cyclooxygenase inhibitors (e.g., aspirin, ibuprofen, and indomethacin) significantly affected"
C[C@]12CCC(=O)C=C1CC[C@@H]1[C@@H]2C(=O)C[C@@]2(C)[C@H]1CC[C@]2(O)C(=O)CO [cortisone],effect on LPS-mediated TNF secretion,[2],effectively attenuated
same,effect on LPS-induced HMGB1 release,"[1]; concentrations up to 10 μM, FIG. 5B",failed to reduce
"CC1COC2=C1C(=O)C(=O)c1c2ccc2c1CCCC2(C)C (centres unmarked) [cryptotanshinone, 1,6,6-Trimethyl-1,2,6,7,8,9-hexahydro-phenanthro[1,2-b]furan-10,11-dione]",IC50,"[1]; RAW264.7, 16 h",< 25 µM
same,inhibition of acetylcholinesterase,[3],can inhibit
COc1cc(/C=C/C(=O)O)ccc1O [ferulic acid],effect on LPS-induced HMGB1 release,[4],failed to affect
same,effect on LPS-induced nitric oxide production,[5],effectively attenuated
CC(C)Cc1ccc(C(C)C(=O)O)cc1 (centres unmarked) [ibuprofen],effect on LPS-induced HMGB1 release,[1]; [8],"None of the tested cyclooxygenase inhibitors (e.g., aspirin, ibuprofen, and indomethacin) significantly affected"
COc1ccc2c(c1)c(CC(=O)O)c(C)n2C(=O)c1ccc(Cl)cc1 [indomethacin],effect on LPS-induced HMGB1 release,[1]; [8],"None of the tested cyclooxygenase inhibitors (e.g., aspirin, ibuprofen, and indomethacin) significantly affected"
"Cc1coc2c1C(=O)C(=O)c1c-2ccc2c1CCCC2(C)C [tanshinone IIA, 1,6,6-Trimethyl-6,7,8,9-tetrahydro-phenanthro[1,2-b]furan-10,11-dione]",IC50,[1]; [9],< 25 µM
same,"survival rate, lethal sepsis",[6],61%
Cc1coc2c1C(=O)C(=O)c1c-2ccc2c(C)cccc12 [tanshinone I],IC50,[1]; [9],< 25 µM
same,inhibition of phospholipase A2,[7],can inhibit
same,"survival rate, lethal sepsis",[6],57%
